Laboratory results as given in patent US20240246979A1, “cGAS INHIBITORS” (Eli Lilly and Company, priority 2022, published 2024).

How the values were obtained:
cGAS [1] = molecular target: T1, cGAS (Homo sapiens, UniProt Q8N884); test: Cellular assay to measure cGAS activity (IFNb AlphaLISA in THP1 cells stimulated by RDG-Adenovirus-GFP); format: cell-based; parameters: host or cells: THP1 cells differentiated with PMA and stimulated with RDG-Adenovirus-GFP; settings: PMA-differentiated THP1 cells, RDG-Adenovirus-GFP at 1000 MOI; inhibition of IFNb production as marker for cGAS activity
T1 sequence (Q8N884 whole entry): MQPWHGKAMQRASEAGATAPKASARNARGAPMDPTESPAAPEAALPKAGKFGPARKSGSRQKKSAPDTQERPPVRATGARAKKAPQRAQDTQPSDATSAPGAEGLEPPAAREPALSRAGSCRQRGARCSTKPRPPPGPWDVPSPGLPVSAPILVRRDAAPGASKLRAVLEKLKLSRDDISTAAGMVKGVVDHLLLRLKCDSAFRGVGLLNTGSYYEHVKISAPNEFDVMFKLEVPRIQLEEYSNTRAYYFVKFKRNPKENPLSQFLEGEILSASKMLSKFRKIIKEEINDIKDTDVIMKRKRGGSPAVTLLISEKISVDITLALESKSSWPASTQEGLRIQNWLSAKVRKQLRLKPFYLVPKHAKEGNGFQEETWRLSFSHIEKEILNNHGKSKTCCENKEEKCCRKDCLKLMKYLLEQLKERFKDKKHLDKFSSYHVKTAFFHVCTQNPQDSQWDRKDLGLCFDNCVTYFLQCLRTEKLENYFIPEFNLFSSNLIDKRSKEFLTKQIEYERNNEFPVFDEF
How it was run: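 The readout is secreted IFNb measured by AlphaLISA after overnight compound exposure. THP1 cells, differentiated with PMA for 24 h and rested overnight, were infected with RDG-Adenovirus-GFP (1000 MOI, 4 h) before compounds were added; IC50 came from a 4-parameter logistic fit of inhibition against log concentration.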

cGAS [2] = molecular target: T1, cGAS; test: In vitro inhibition assay of cGAS activity (cGAMP production, RapidFire mass spectrometry); format: biochemical; parameters: Insert cDNA encoding full-length of human cGAS; His6; made in house; host or cells: E. coli BL21(DE3); settings: 10 nM recombinant human cGAS, 60 nM 75-bp dsDNA, 50 μM ATP, 50 μM GTP, 3 hrs
How it was run: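 Reactions in 10 mM Tris-Cl pH 7.5, 5 mM MgCl2, 0.01% Triton X-100 contained serially diluted compound, 10 nM recombinant cGAS, dsDNA activator and 50 μM each of ATP and GTP, run 3 hrs at ambient temperature. After formic acid quench, cGAMP output was measured by mass spectrometry and percent inhibition versus log concentration was fitted for IC50.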

Row | SMILES | IC50 (cGAS [1]) | IC50 (cGAS [2])
1 | CC1C(=O)NCCc2[nH]c3c(Cl)c(Cl)cc(NCc4cocn4)c3c21 (stereo in doubt) [Example 58, (S′)-7,8-Dichloro-1-methyl-10-((oxazol-4-ylmethyl)amino)-3,4,5,6-tetrahydroazepino[4,5-b]indol-2(1H)-one Or (R)-7,8-Dichloro-1-methyl-10-((oxazol-4-ylmethyl)amino)-3,4,5,6-tetrahydroazepino[4,5-b]indol-2(1H)-one] | 577 nM | 16.5 nM
2 | Cn1ncc(-c2cc(Cl)c(F)c3[nH]c4c(c23)CC(=O)NCC4)n1 [Example 1, 8-Chloro-7-fluoro-10-(2-methyl-2H-1,2,3-triazol-4-yl)-3,4,5,6-tetrahydroazepino[4,5-b]indol-2(1H)-one] | 2640 nM | 33.4 nM
3 | Cn1ncc(-c2cc(Cl)c(Cl)c3[nH]c4c(c23)CC(=O)NCC4)n1 [Example 2, 7,8-Dichloro-10-(2-methyl-2H-1,2,3-triazol-4-yl)-3,4,5,6-tetrahydroazepino[4,5-b]indol-2(1H)-one] | 819 nM | 20.5 nM
4 | CNC(=O)CC1CNC(=O)Cc2c1[nH]c1c(Cl)c(Cl)cc(-c3cnn(C)n3)c21 (stereo not drawn) [Example 6, 2-(7,8-Dichloro-10-(2-methyl-2H-1,2,3-triazol-4-yl)-2-oxo-1,2,3,4,5,6-hexahydroazepino[4,5-b]indol-5-yl)-N-methylacetamide] | > 10000 nM | 15.6 nM
5 | CN(C)C(=O)CC1CNC(=O)Cc2c1[nH]c1c(Cl)c(Cl)cc(-c3cnn(C)n3)c21 (stereo not drawn) [Example 7, 2-(7,8-Dichloro-10-(2-methyl-2H-1,2,3-triazol-4-yl)-2-oxo-1,2,3,4,5,6-hexahydroazepino[4,5-b]indol-5-yl)-N,N-dimethylacetamide] | 661 nM | 28.1 nM
6 | CC1C(=O)NCCc2[nH]c3c(Cl)c(Cl)cc(-c4cnn(C)n4)c3c21 (stereo not drawn) [Example 9, 7,8-Dichloro-1-methyl-10-(2-methyl-2H-1,2,3-triazol-4-yl)-3,4,5,6-tetrahydroazepino[4,5-b]indol-2(1H)-one] | 2160 nM | 87 nM
7 | COc1cc(Cl)c(Cl)c2[nH]c3c(c12)C(C)C(=O)NCC3 (stereo not drawn) [Example 10, 7,8-Dichloro-10-methoxy-1-methyl-3,4,5,6-tetrahydroazepino[4,5-b]indol-2(1H)-one] | 2730 nM | 124 nM
8 | CCC1C(=O)NCCc2[nH]c3c(Cl)c(Cl)cc(NC(=O)CO)c3c21 (stereo not drawn) [Example 11, N-(7,8-Dichloro-1-ethyl-2-oxo-1,2,3,4,5,6-hexahydroazepino[4,5-b]indol-10-yl)-2-hydroxyacetamide] | 1760 nM | 45.4 nM
9 | CC1C(=O)NCCc2[nH]c3c(Cl)c(Cl)cc(OCCO)c3c21 (stereo not drawn) [Example 18, 7,8-Dichloro-10-(2-hydroxyethoxy)-1-methyl-3,4,5,6-tetrahydroazepino[4,5-b]indol-2(1H)-one] | 2070 nM | 70.9 nM
10 | O=C1Cc2c([nH]c3c(Cl)c(Cl)cc(-c4cn[nH]c4)c23)CCN1 [Example 19, 7,8-Dichloro-10-(1H-pyrazol-4-yl)-3,4,5,6-tetrahydroazepino[4,5-b]indol-2(1H)-one] | > 10000 nM | 93.6 nM
11 | NC(=O)COc1cc(Cl)c(Cl)c2[nH]c3c(c12)CC(=O)NCC3 [Example 20, 2-((7,8-Dichloro-2-oxo-1,2,3,4,5,6-hexahydroazepino[4,5-b]indol-10-yl)oxy)acetamide] | > 10000 nM | 132 nM
12 | O=C1Cc2c([nH]c3c(Cl)c(Cl)cc(NCCCO)c23)CCN1 [Example 22, 7,8-Dichloro-10-((3-hydroxypropyl)amino)-3,4,5,6-tetrahydroazepino[4,5-b]indol-2(1H)-one] | 4580 nM | 45.9 nM
13 | O=C1Cc2c([nH]c3c(Cl)c(Cl)cc(OCCCO)c23)CCN1 [Example 23, 7,8-Dichloro-10-(3-hydroxypropoxy)-3,4,5,6-tetrahydroazepino[4,5-b]indol-2(1H)-one] | 7790 nM | 118 nM
14 | O=C1Cc2c([nH]c3c(Cl)c(Cl)cc(NC(=O)CO)c23)CCN1 [Example 24, N-(7,8-Dichloro-2-oxo-1,2,3,4,5,6-hexahydroazepino[4,5-b]indol-10-yl)-2-hydroxyacetamide] | 6910 nM | 88.4 nM

Continued, values first:

Row | IC50 (cGAS [1]) | IC50 (cGAS [2]) | SMILES
15 | 311 nM | 10.8 nM | C[C@@H]1C(=O)NCCc2[nH]c3c(Cl)c(Cl)cc(OCc4cocn4)c3c21 (single isomer, unassigned) [Example 178, (S)-7,8-Dichloro-1-methyl-10-(oxazol-4-ylmethoxy)-3,4,5,6-tetrahydroazepino[4,5-b]indol-2(1H)-one or (R)-7,8-dichloro-1-methyl-10-(oxazol-4-ylmethoxy)-3,4,5,6-tetrahydroazepino[4,5-b]indol-2(1H)-one]
16 | > 10000 nM | 2120 nM | C[C@@H]1C(=O)NCCc2[nH]c3c(Cl)c(Cl)cc(OCc4cocn4)c3c21 (single isomer, unassigned) [Example 179, (S)-7,8-Dichloro-1-methyl-10-(oxazol-4-ylmethoxy)-3,4,5,6-tetrahydroazepino[4,5-b]indol-2(1H)-one or (R)-7,8-dichloro-1-methyl-10-(oxazol-4-ylmethoxy)-3,4,5,6-tetrahydroazepino[4,5-b]indol-2(1H)-one]
17 | > 10000 nM | > 39800 nM | C[C@H](O)C(=O)Nc1cc(Cl)c(Cl)c2[nH]c3c(c12)[C@@H](C)C(=O)NCC3(C)C (single isomer, unassigned) [Example 181, (S)—N—((R)-7,8-Dichloro-1,5,5-trimethyl-2-oxo-1,2,3,4,5,6-hexahydroazepino[4,5-b]indol-10-yl)-2-hydroxypropanamide or (S)—N—((S)-7,8-dichloro-1,5,5-trimethyl-2-oxo-1,2,3,4,5,6-hexahydroazepino[4,5-b]indol-10-yl)-2-hydroxypropanamide]
18 | 1180 nM | 45.6 nM | C[C@H](O)C(=O)Nc1cc(Cl)c(Cl)c2[nH]c3c(c12)[C@@H](C)C(=O)NCC3(C)C (single isomer, unassigned) [Example 182, (S)—N—((R)-7,8-Dichloro-1,5,5-trimethyl-2-oxo-1,2,3,4,5,6-hexahydroazepino[4,5-b]indol-10-yl)-2-hydroxypropanamide or (S)—N—((S)-7,8-dichloro-1,5,5-trimethyl-2-oxo-1,2,3,4,5,6-hexahydroazepino[4,5-b]indol-10-yl)-2-hydroxypropanamide]
19 | 1370 nM | 17.4 nM | COCCOc1cc(Cl)c(Cl)c2[nH]c3c(c12)[C@H](C)C(=O)NCC3(C)C (single isomer, unassigned) [Example 184, (S)-7,8-Dichloro-10-(2-methoxyethoxy)-1,5,5-trimethyl-3,4,5,6-tetrahydroazepino[4,5-b]indol-2(1H)-one or (R)-7,8-dichloro-10-(2-methoxyethoxy)-1,5,5-trimethyl-3,4,5,6-tetrahydroazepino[4,5-b]indol-2(1H)-one]
20 | > 10000 nM | 1890 nM | COCCOc1cc(Cl)c(Cl)c2[nH]c3c(c12)[C@H](C)C(=O)NCC3(C)C (single isomer, unassigned) [Example 185, (S)-7,8-Dichloro-10-(2-methoxyethoxy)-1,5,5-trimethyl-3,4,5,6-tetrahydroazepino[4,5-b]indol-2(1H)-one or (R)-7,8-Dichloro-10-(2-methoxyethoxy)-1,5,5-trimethyl-3,4,5,6-tetrahydroazepino[4,5-b]indol-2(1H)-one]
21 | 4340 nM | 48.9 nM | C[C@@H]1C(=O)NCCc2c1c1c(NC(=O)CO)cc(Cl)c(Cl)c1n2CC(F)(F)F (single isomer, unassigned) [Example 186, (S)—N-(7,8-Dichloro-1-methyl-2-oxo-6-(2,2,2-trifluoroethyl)-1,2,3,4,5,6-hexahydroazepino[4,5-b]indol-10-yl)-2-hydroxyacetamide or (R)—N-(7,8-Dichloro-1-methyl-2-oxo-6-(2,2,2-trifluoroethyl)-1,2,3,4,5,6-hexahydroazepino[4,5-b]indol-10-yl)-2-hydroxyacetamide]
22 | > 10000 nM | > 39800 nM | C[C@@H]1C(=O)NCCc2c1c1c(NC(=O)CO)cc(Cl)c(Cl)c1n2CC(F)(F)F (single isomer, unassigned) [Example 187, (S)—N-(7,8-Dichloro-1-methyl-2-oxo-6-(2,2,2-trifluoroethyl)-1,2,3,4,5,6-hexahydroazepino[4,5-b]indol-10-yl)-2-hydroxyacetamide or (R)—N-(7,8-Dichloro-1-methyl-2-oxo-6-(2,2,2-trifluoroethyl)-1,2,3,4,5,6-hexahydroazepino[4,5-b]indol-10-yl)-2-hydroxyacetamide]
23 | > 10000 nM | 2000 nM | CC1C(=O)NCCc2[nH]c3c(Cl)c(Cl)cc(NCc4cocn4)c3c21 (stereo in doubt) [Example 59, (S′)-7,8-Dichloro-1-methyl-10-((oxazol-4-ylmethyl)amino)-3,4,5,6-tetrahydroazepino[4,5-b]indol-2(1H)-one Or (R)-7,8-Dichloro-1-methyl-10-((oxazol-4-ylmethyl)amino)-3,4,5,6-tetrahydroazepino[4,5-b]indol-2(1H)-one]
24 | 4150 nM | 37.5 nM | CC1C(=O)NCCc2[nH]c3c(Cl)c(Cl)cc(NC4CCOC4)c3c21 (stereo in doubt) [Example 66, 7,8-Dichloro-1-methyl-10-(((R)-tetrahydrofuran-3-yl)amino)-3,4,5,6-tetrahydroazepino[4,5-b]indol-2(1H)-one]
